According to patent US11976063B2, “Pharmaceutical composition comprising berberine and ursodeoxycholic acid for the treatment of various diseases or disorders” (priority 2014, dated 2024):
Structures can show the parent of a compound that is named as a salt.

What was measured:
[1] = tested on: high fat diet (HFD) induced obesity mice; test: High fat diet induced obesity mice model (Example 2); format: in vivo, NIH male mice; conditions: used individually at 50 mg/Kg, once daily i.g., interim results at 15 days
Excerpt: This example describes an in vivo efficacy study of the combinations disclosed in the present invention using a high fat diet (HFD) induced obesity mice model.
Fifty NIH male mice of 4 weeks old were acquired (Guangzhou Institute of Laboratory Animal). After acclimatization for one week, eight mice were selected as normal control; the rest forty-two mice were fed with HFD (in which 40% of calories is from fat) for 14 days to establish a HFD induced obesity mice model resembling the pathophysiology of metabolic syndrome in human. Normal control mice were fed with normal chow diet. […]
The mice from Group 1 to 4 were treated with the corresponding testing articles indicated above once daily by intragastric gavage. […] Blood glucose (fasting and non-fasting), total cholesterol (TC) and triglyceride (TG) levels, food intake, water intake and body weight were measured throughout the study.
On day 28 of the treatment, an oral glucose tolerance test (OGTT) was performed in 12-hour fasted animals. For the OGTT, after the measurement of the basal glucose concentration (T=−30 min), mice received an oral glucose challenge at 2.5 g/Kg and glucose values were determined by glucometer (ACCU-CHEK Active, Roche) at 0, 30, 60 and 120 min. […]

[2] = tested on: high fat diet (HFD) and streptozotocin (STZ) induced diabetic mice; format: in vivo
Protocol: This example describes an in vivo efficacy study of the combinations disclosed in the present invention using a high fat diet (HFD) and streptozotocin (STZ) induced diabetic mice model.
Sixty NIH male mice of 4 weeks old were acquired from Guangzhou Institute of Laboratory Animal. After acclimatization for one week, five mice were selected as normal control group (Group 1), the rest fifty-five mice were administered single dose of STZ at the dose of 40 mg/kg, and fed with HFD (in which 40% of calories is from fat) for 7 days to establish a diabetic animal model resembling the pathophysiology of type 2 diabetes in human. Mice in the normal control group were not administered STZ, and fed with normal chow diet.
The mice from Group 2 to 5 were treated with the corresponding testing articles indicated above once daily by intragastric gavage. HFD continued throughout the duration of the treatment of 28 days. The normal mice (Group 1) were treated with normal saline by intragastric gavage. Fasting blood glucose, total cholesterol (TC) and triglyceride (TG) levels, food intake, water intake and body weight were measured throughout the study.
On day 28 of the treatment, an oral glucose tolerance test (OGTT) was performed in 12-hour fasted animals. For the OGTT, after the measurement of the basal glucose concentration (T=−30 min), mice received an oral glucose challenge at 2.5 g/kg and glucose values were determined by glucometer (ACCU-CHEK Active, Roche) at 0, 30, 60 and 120 min.
After OGTT, blood samples were collected for the measurement of blood glucose, TC and TG. The mice were sacrificed, and the pancreas, liver, kidney and fat were harvested for histopathology analysis.

[3] = tested on: high fat diet (HFD) induced non-alcoholic fatty liver mice; test: High fat diet induced non-alcoholic fatty liver mice model (Example 5); format: in vivo, NIH male mice
Excerpt: This example describes an in vivo efficacy study of BUDCA disclosed in the present invention using a high fat diet (HFD) induced non-alcoholic fatty liver mice model.
91 NIH male mice of 4 weeks old were obtained from Vital River Laboratories (Beijing, China). After acclimatization for one week, 13 mice were selected as control group (Group 1, G1) with normal chow diet fed, and the other 78 mice were fed with HFD (in which 40% of calories is from fat) for 4 weeks to establish an animal model resembling the pathophysiology of non-alcoholic fatty liver in human.
Following 4 weeks of high fat dietary intervention, the 78 mice were divided into 6 groups according to body weight (n=13 per group): • Group 2, G2: Vehicle control (0.5% CMC-Na solution) • Group 3, G3: Low-dose group of BUDCA (30 mg/kg) • Group 4, G4: Middle-dose group of BUDCA (100 mg/kg) • Group 5, G5: High-dose group of BUDCA (300 mg/kg) • Group 6, G6: BBR control group (Berberine HCl, 150 mg/Kg) • Group 7, G7: UDCA control group (Ursodeoxycholic acid, 150 mg/Kg)
The mice from G2 to G7 were administered with the corresponding testing articles indicated above once daily by intragastric gavage. HFD continued throughout the duration of the treatment of 6 weeks. The normal mice (G1) were treated with vehicle (0.5% CMC-Na solution) via intragastric gavage. At the end of experiment, the following biochemical parameters were measured and tests were carried out: • Body weight, the weight ratio of liver • Total cholesterol (TC) and triglyceride (TG) levels, high density lipoprotein cholesterol (HDL-C) and low density lipoprotein cholesterol (LDL-C) levels • Alanine aminotransferase (ALT) and aspartate aminotransferase (AST) levels • Superoxide dismutase (SOD) activity and malondialdehyde (MDA) level • Oral glucose tolerance test (OGTT) • Histopathological examination of liver ([…] staining)
After 6 weeks treatment, blood was collected via retro-orbital bleeding of each 12-hour fasted animal. Liver was harvested by surgery for histopathology analysis after weight measurement. Then the serum was isolated for the determination of TC, TG, HDL-C, LDL-C, ALT, AST, SOD and MDA.
One week before sacrifice (Week 5 of treatment), an oral glucose tolerance test (OGTT) was performed in 12-hour fasted animals. For the OGTT, all mice received an oral glucose challenge at 2.0 g/Kg and the blood glucose concentrations were determined by glucometer (ACCU-CHEK Active, Roche) at 0, 30, 60, 90 and 120 min.
The liver tissue was histopathologically evaluated by […] staining after frozen section.

[4] = Day 0 (before treatment), same doses
[5] = Day 3, same doses, once daily i.g.
[6] = Day 27, same doses, once daily i.g.
[7] = Day 28, same doses, once daily i.g.
[8] = 150 mg/Kg (G6 Berberine HCl; G7 UDCA), i.g. once daily, 6 weeks, HFD, mean ± S.E.M
[9] = serum, 150 mg/Kg (G6 Berberine HCl; G7 UDCA), i.g. once daily, 6 weeks, HFD, mean ± S.E.M

SMILES: O=C(O)CC(O)(C(=O)O)C(O)C(=O)O (stereo not drawn) [hydroxycitric acid, 1,2-dihydroxypropane-1,2,3-tricarboxylic acid]
- Pharmacological effects comparing to the vehicle control group [1]: neither berberine (Group 2), nor hydroxycitric acid (Group 3) demonstrated any pharmacological effects

SMILES: CN(C)C(=N)NC(=N)N [Metformin, N,N-Dimethylimidodicarbonimidic diamide]
- Effect on symptoms of diabetes (overall efficacy) ([2]; 28 days treatment, HFD/STZ mice): did not demonstrate a clear efficacy
- Fasting blood glucose, Day 0 ([2]; Day 0 (before treatment), metformin 300 mg/kg, berberine 150 + UA 150 mg/kg, berberine 150 + EPA 75 + DHA 75 mg/kg): 24.08 ± 5.44 mmol/L
- Weight, Day 0 ([2]; Day 0 (before treatment), metformin 300 mg/kg, berberine 150 + UA 150 mg/kg, berberine 150 + EPA 75 + DHA 75 mg/kg, once daily i.g.): 26.30 ± 2.54 g
- Total Cholesterol, Day 0 [2, 4]: 297.96 ± 67.09 mg/dL
- Triglyceride, Day 0 [2, 4]: 2.40 ± 1.03 mmol/L
- Food Intake, Day 3 [2, 5]: 8.66 g
- Water intake, Day 3 [2, 5]: 19.40 mL
- Water intake, Day 6 ([2]; Day 6, same doses, once daily i.g.): 23.60 mL
- Weight, Day 27 ([2]; Day 27, metformin 300 mg/kg, berberine 150 + UA 150 mg/kg, berberine 150 + EPA 75 + DHA 75 mg/kg, once daily i.g.): 36.99 ± 3.90 g
- Food Intake, Day 27 [2, 6]: 9.37 g
- Water intake, Day 27 [2, 6]: 34.40 mL
- Fasting blood glucose, Day 28 [2, 7]: 21.66 ± 4.71 mmol/L
- Total Cholesterol, Day 28 [2, 7]: 436.99 ± 159.73 mg/dL
- Triglyceride, Day 28 [2, 7]: 6.06 ± 6.71 mmol/L

SMILES: COc1ccc2cc3[n+](cc2c1OC)CCc1cc2c(cc1-3)OCO2 [berberine, 5,6-dihydro-9,10-dimethoxybenzo[g]-1,3-benzodioxolo[5,6-a]quinolizinium]
- Pharmacological effects comparing to the vehicle control group [1]: neither berberine (Group 2), nor hydroxycitric acid (Group 3) demonstrated any pharmacological effects
- Animals showing gastrointestinal side effects at the time of sacrifice ([3]; berberine treatment group (150 mg/Kg), 6 weeks i.g.): 50 % of animals

SMILES: COc1ccc2cc3[n+](cc2c1OC)CCc1cc2c(cc1-3)OCO2 [Berberine HCl, reference compound]
- Body weight [3, 8]: 42.4 ± 1.37 g
- Weight ratio of liver [3, 8]: 4.26 ± 0.12%
- ALT [3, 9]: 37.1 ± 4.08 U/L
- AST [3, 9]: 198.7 ± 18.93 U/L
- HDL-C [3, 9]: 2.47 ± 0.20 mmol/L
- LDL-C [3, 9]: 1.42 ± 0.21 mmol/L
- MDA [3, 9]: 9.3 ± 2.14 µM
- SOD [3, 9]: 77.03 ± 8.98 U/mL
- TC [3, 9]: 5.97 ± 0.47 mmol/L
- TG [3, 9]: 1.00 ± 0.08 mmol/L

SMILES: C[C@H](CCC(=O)O)[C@H]1CC[C@H]2[C@@H]3[C@@H](O)C[C@@H]4C[C@H](O)CC[C@]4(C)[C@H]3CC[C@]12C [UDCA, 3α,7β-dihydroxy-5β-cholan-24-oic acid, reference compound]
- Body weight [3, 8]: 42.0 ± 1.16 g
- Weight ratio of liver [3, 8]: 4.77 ± 0.26%
- ALT [3, 9]: 30.6 ± 5.73 U/L
- AST [3, 9]: 162.86 ± 29.42 U/L
- HDL-C [3, 9]: 2.13 ± 0.33 mmol/L
- LDL-C [3, 9]: 1.37 ± 0.26 mmol/L
- SOD [3, 9]: 44.75 ± 11.99 U/mL
- TC [3, 9]: 4.77 ± 0.70 mmol/L
- TG [3, 9]: 1.20 ± 0.22 mmol/L
